Laboratory results reported in ChEMBL document CHEMBL3091388, “New cytotoxic benzosuberene analogs. Synthesis, molecular modeling and biological evaluation” (Bioorg Med Chem Lett, 2013).

Key:
CYP3A4 = CYP3A4 (Homo sapiens, UniProt P08684); assay: Inhibition of CYP3A4 (unknown origin) at 3 uM; format: ADME
CYP2D6 = CYP2D6 (Homo sapiens, UniProt P10635); assay: Inhibition of CYP2D6 (unknown origin) at 3 uM; format: ADME
CYP2C9 = CYP2C9 (Homo sapiens, UniProt P11712); assay: Inhibition of CYP2C9 (unknown origin) at 3 uM; format: ADME
CYP2C9, sequence (P11712 whole entry): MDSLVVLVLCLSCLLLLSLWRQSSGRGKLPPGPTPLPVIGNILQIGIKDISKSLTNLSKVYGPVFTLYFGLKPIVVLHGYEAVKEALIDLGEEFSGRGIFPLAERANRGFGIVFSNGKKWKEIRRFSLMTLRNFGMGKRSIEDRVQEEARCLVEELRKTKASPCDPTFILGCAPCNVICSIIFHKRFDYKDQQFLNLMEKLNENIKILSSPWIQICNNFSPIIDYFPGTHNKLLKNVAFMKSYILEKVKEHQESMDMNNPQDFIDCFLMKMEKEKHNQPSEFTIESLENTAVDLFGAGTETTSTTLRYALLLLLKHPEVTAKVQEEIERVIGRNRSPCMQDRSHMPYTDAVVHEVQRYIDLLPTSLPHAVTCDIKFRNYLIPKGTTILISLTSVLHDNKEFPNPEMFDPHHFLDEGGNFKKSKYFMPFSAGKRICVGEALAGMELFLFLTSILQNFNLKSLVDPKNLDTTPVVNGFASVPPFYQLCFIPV

CYP1A2 = target: T1, CYP1A2 (Homo sapiens, UniProt P05177); assay: Inhibition of CYP1A2 (unknown origin) at 3 uM; format: ADME
T1 sequence (P05177 whole entry): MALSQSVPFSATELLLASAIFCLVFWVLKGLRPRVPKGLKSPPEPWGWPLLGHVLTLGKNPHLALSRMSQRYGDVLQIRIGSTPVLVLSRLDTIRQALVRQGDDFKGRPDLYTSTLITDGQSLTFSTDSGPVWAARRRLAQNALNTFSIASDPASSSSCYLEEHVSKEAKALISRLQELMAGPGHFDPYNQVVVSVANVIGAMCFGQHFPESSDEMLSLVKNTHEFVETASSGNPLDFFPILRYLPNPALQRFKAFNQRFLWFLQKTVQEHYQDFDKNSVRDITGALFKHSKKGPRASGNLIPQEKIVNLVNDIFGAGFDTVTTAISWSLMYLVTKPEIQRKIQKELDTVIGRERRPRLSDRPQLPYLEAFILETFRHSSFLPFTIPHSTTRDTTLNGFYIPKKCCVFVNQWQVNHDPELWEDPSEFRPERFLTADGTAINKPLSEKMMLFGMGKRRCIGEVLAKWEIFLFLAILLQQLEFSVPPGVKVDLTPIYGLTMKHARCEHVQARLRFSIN

CYP2C8 = target: T2, CYP2C8 (Homo sapiens, UniProt P10632); assay: Inhibition of CYP2C8 (unknown origin) at 3 uM; format: ADME
T2 sequence (P10632 whole entry): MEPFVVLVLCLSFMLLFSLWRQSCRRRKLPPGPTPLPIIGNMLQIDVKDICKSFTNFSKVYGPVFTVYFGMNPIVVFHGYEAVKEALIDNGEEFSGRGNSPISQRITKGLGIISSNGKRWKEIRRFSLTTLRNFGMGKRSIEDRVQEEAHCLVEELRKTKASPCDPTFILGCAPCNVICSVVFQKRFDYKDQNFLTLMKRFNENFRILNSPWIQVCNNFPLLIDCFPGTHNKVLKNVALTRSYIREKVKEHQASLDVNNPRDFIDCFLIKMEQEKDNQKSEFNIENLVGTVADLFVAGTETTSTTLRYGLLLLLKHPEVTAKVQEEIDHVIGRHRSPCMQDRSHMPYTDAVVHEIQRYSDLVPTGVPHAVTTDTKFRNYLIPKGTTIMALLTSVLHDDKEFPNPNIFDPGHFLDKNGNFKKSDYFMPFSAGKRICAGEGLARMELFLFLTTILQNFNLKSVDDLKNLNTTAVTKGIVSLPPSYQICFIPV

[1] = Apparent permeability from apical to basolateral side in RRCK cells; format: ADME, cell-based, Canis lupus familiaris, MDCKII-LE; conditions: dog, MDCK
[2] = Apparent intrinsic clearance in human liver microsomes at 1 uM; format: ADME; conditions: read-out: CLH(app)
HUVEC = assay: Cytotoxicity against HUVEC assessed as cell viability after 4 days by MTS assay; format: cell-based; conditions: Homo sapiens, 96 h
MDA-MB-468 = assay: Cytotoxicity against human MDA-MB-468 cells assessed as cell viability after 4 days by MTS assay; format: functional, cell-based; conditions: MDA-MB-468, 96 h
NCI-N87 = assay: Cytotoxicity against human NCI-N87 cells assessed as cell viability after 4 days by MTS assay; format: functional, cell-based; conditions: NCI-N87, 96 h
BT-474 = assay: Cytotoxicity against human BT474 cells assessed as cell viability after 4 days by MTS assay; format: functional, cell-based; conditions: BT-474, 96 h
MDR1 (ABCB1, P-gp) = MDR1 (ABCB1, P-gp) (Homo sapiens, UniProt P08183); assay: Activity at MDR1 (unknown origin) expressed in MDCK cells assessed as efflux ratio of permeability at 2 uM; format: ADME, cell-based
MDR1 (ABCB1, P-gp), sequence (P08183 whole entry): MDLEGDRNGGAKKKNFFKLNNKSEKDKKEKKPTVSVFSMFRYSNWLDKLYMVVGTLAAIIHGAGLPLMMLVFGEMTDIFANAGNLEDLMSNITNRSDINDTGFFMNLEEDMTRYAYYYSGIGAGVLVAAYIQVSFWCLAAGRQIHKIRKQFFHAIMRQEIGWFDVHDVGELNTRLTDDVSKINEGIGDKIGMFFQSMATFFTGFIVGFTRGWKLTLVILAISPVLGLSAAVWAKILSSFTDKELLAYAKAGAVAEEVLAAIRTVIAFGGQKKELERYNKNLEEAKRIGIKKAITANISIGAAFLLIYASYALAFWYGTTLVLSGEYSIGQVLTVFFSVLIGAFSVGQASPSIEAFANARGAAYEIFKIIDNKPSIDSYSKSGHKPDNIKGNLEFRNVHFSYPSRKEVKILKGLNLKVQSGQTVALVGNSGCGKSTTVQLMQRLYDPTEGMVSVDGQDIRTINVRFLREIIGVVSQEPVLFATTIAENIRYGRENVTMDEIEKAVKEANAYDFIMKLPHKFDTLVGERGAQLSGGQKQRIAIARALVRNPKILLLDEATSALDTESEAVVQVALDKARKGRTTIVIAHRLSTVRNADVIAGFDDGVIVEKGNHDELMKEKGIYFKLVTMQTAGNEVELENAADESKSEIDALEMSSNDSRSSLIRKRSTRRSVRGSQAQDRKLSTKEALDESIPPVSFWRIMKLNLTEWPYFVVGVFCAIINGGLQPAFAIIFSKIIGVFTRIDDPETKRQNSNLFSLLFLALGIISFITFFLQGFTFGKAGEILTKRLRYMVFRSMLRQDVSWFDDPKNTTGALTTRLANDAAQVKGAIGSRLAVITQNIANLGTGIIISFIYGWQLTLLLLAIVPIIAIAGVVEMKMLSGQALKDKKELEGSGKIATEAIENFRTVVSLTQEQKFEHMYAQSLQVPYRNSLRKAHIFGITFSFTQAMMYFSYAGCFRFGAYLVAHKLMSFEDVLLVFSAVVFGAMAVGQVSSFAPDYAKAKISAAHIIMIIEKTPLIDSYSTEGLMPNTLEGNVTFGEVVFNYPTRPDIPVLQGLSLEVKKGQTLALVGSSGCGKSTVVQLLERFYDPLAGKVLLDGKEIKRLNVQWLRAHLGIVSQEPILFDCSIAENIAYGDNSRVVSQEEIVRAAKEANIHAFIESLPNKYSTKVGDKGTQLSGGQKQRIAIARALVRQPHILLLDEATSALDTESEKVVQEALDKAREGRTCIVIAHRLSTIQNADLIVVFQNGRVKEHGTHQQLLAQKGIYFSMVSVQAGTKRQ

CYP3A4, sequence (P08684 whole entry): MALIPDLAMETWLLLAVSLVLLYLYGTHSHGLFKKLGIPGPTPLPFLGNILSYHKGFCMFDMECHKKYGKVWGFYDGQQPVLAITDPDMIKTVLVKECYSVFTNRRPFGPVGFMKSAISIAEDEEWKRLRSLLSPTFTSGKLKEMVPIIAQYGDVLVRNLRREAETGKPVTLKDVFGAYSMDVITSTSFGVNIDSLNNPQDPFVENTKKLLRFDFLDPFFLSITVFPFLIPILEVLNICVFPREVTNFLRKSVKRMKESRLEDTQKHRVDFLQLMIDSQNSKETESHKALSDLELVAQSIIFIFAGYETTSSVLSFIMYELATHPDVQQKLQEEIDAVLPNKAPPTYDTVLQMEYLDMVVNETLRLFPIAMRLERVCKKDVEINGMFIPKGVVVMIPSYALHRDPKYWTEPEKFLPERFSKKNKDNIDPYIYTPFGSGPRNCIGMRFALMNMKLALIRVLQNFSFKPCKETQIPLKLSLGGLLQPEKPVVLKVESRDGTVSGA
CYP2D6, sequence (P10635 whole entry): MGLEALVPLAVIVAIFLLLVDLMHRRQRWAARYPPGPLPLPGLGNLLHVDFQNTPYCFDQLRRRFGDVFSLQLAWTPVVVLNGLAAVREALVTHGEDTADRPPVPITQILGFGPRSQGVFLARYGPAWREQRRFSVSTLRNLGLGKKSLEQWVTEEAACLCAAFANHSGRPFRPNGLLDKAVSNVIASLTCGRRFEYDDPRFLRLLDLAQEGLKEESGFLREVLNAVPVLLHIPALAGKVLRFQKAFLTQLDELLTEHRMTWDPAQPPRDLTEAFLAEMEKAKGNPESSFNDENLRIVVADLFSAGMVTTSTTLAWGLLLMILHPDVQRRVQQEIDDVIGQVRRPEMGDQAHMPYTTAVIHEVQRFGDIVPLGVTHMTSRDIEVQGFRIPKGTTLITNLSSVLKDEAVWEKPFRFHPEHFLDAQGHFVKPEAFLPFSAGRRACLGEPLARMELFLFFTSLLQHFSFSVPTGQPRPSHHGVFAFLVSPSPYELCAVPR

| SMILES | inhibition at 3 µM (CYP3A4) [%] | inhibition at 3 µM (CYP2D6) [%] | inhibition at 3 µM (CYP2C9) [%] | inhibition at 3 µM (CYP1A2) [%] | inhibition at 3 µM (CYP2C8) [%] | Papp A→B [1] [nm/s] | microsomal CLint at 1 µM [2] [µL/min/mg] | IC50 (HUVEC) [µM] | IC50 (MDA-MB-468) [µM] | IC50 (NCI-N87) [µM] | IC50 (BT-474) [µM] | efflux ratio at 2 µM (MDR1 (ABCB1, P-gp)) |
| --- | --- | --- | --- | --- | --- | --- | --- | --- | --- | --- | --- | --- |
| COc1ccc2c(c1O)CCCC(CCCC#N)=C2c1cc(OC)c(OC)c(OC)c1 | 25.3 | 0.9 | 23.7 | 1.5 | 50.5 | 166 | 239 | 0.7 | > 1 | 0.824 | 0.922 | – |
| COc1ccc2c(c1O)CC=CC=C2c1cc(OC)c(OC)c(OC)c1 | – | – | – | – | – | – | – | 0.005 | 0.004 | 0.0056 | 0.0055 | – |
| COc1ccc2c(c1O)CCCC(CCC(N)=O)=C2c1cc(OC)c(OC)c(OC)c1 | – | – | – | – | – | – | – | 0.472 | > 1 | > 1 | > 1 | – |
| COc1ccc2c(c1O)CCCC(CCC#N)=C2c1cc(OC)c(OC)c(OC)c1 | 31.4 | 2.8 | 75.7 | 2.8 | 45.3 | 196 | > 320 | 0.644 | 0.561 | 0.864 | 0.718 | 1.2 |
| COc1ccc2c(c1O)CCCC(CCN(C)C)=C2c1cc(OC)c(OC)c(OC)c1 | – | – | – | – | – | – | – | 0.251 | > 1 | > 1 | > 1 | – |
| COc1ccc2c(c1O)CCCC(CCO)=C2c1cc(OC)c(OC)c(OC)c1 | – | – | – | – | – | – | – | 0.155 | 0.115 | 0.2 | 0.217 | – |
| COc1ccc2c(c1O)CCCC(Cc1ccccc1)=C2c1cc(OC)c(OC)c(OC)c1 | 33.9 | 26.2 | 55.3 | 18.4 | 83.5 | – | 51.2 | 0.961 | > 1 | > 1 | > 1 | – |
| CCC1=C(c2cc(OC)c(OC)c(OC)c2)c2ccc(OC)c(O)c2CCC1 | 31.8 | 16 | 75 | 11.3 | 71.5 | 33 | 136 | 0.193 | 0.304 | 0.335 | 0.355 | 1 |
| COc1ccc2c(c1O)CCCC(C)=C2c1cc(OC)c(OC)c(OC)c1 | 39.6 | 13.5 | 91.5 | 19.7 | 83.2 | 62 | 108 | 0.0784 | 0.0446 | 0.203 | 0.0523 | 13.1 |
| COc1ccc2c(c1O)CCCC=C2c1cc(OC)c(OC)c(OC)c1 | 16.1 | 6.2 | 89.7 | 19 | 77.6 | – | 54.1 | 0.0046 | 0.0015 | 0.0038 | 0.0029 | – |
| COc1ccc2c(c1O)C[C@@H]1C=C[C@@]2(c2cc(OC)c(OC)c(OC)c2)O1 (racemic) | – | – | – | – | – | – | – | 0.016 | 0.0089 | 0.0156 | 0.0109 | – |
| COc1ccc2c(c1O)CCCC(CC(O)CO)=C2c1cc(OC)c(OC)c(OC)c1 (racemic) | 3.7 | 0 | 6.1 | 0 | 35.4 | 161 | 66.3 | > 1 | 0.919 | > 1 | 0.99 | – |
| COc1cc2c(c(OC)c1OC)-c1ccc(OC)c(=O)cc1[C@@H](NC(C)=O)CC2 [COLCHICINE] | – | 7.7 | 11.1 | – | 20.4 | 7.6 | – | 0.0132 | 0.0021 | 0.0054 | 0.0038 | – |
| COc1ccc(/C=C\c2cc(OC)c(OC)c(OC)c2)cc1O [COMBRETASTATIN A4] | – | – | – | – | – | – | – | 0.0025 | 0.0011 | 0.0025 | 0.0039 | – |
